Earlier results on two molecules are cited in US20040157796A1 (priority 2002, published 2004).

Series [1] concerns the target COX-1 (Homo sapiens, UniProt P23219). The conditions noted are these: background statement.
For series [2] the following is noted: background statement.

Structures are written as SMILES.

Sequence of COX-1 (P23219 24-599): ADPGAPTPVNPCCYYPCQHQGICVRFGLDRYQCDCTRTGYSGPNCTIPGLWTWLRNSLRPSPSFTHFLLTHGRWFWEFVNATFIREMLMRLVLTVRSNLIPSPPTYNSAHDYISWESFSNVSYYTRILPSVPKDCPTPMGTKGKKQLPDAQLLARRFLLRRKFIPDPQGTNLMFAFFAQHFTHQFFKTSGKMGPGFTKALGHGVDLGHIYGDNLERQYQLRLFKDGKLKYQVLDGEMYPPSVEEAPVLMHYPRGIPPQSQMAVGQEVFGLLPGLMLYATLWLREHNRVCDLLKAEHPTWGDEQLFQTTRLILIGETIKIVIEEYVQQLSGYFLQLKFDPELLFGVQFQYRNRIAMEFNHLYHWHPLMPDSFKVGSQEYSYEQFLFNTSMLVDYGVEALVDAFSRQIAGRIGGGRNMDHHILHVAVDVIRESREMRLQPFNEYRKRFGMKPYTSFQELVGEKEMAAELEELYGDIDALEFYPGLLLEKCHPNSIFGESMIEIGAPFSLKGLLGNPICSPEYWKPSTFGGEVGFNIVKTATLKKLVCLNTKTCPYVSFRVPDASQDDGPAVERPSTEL

On to `CCC(=O)NS(=O)(=O)c1ccc(-c2c(-c3ccccc3)noc2C)cc1` [Parecoxib, N-[[4-(5-methyl-3-phenylisoxazol-4-yl)phenyl]sulfonyl]propanamide], for which, in series [1], the “in vitro inhibitory activity against COX-1” value was “weak in vitro inhibitory activity”. In addition, in series [2], the solubility in water result was “much more soluble”.

As to `Cc1onc(-c2ccccc2)c1-c1ccc(S(N)(=O)=O)cc1` [valdecoxib], in series [1], the “in vitro inhibitory activity against COX-1” value is given as “weak inhibitor”. In addition, in series [2], the solubility in water entry is “extremely low solubility”.
